Tests used:
[1] = target: S1P1 (membranes prepared from S1P1/CHO cells) (Homo sapiens (Human), UniProt P21453); assay: Receptor [35S] GTPγS binding assay (S1P1 GTPγS); assay type: biochemical; details: phosphate examples; read-out: S1P1 GTPγS
Experimental: (§1) Receptor [^35S] GTPγS Binding Assays: (S1P1 GTPγS/S1P3 GTPγS)
Compounds were loaded in a 384 Falcon v-bottom plate (0.5 μl/well in a 11 point, 3-fold dilution). Membranes prepared from S1P1/CHO cells or EDG3-Gal5-bla HEK293T cells (EDG3 equivalent S1P3) were added to the compound plate (40 μl/well, final protein 3 μg/well) with MULTIDROP®. [^35S] GTP (1250 Ci/mmol, Perkin Elmer) was diluted in assay buffer: 20 mM HEPES, pH7.5, 10 mM MgCl2, 150 mM NaCl, 1 mM EGTA (ethylene glycol tetraacetic acid), 1 mM DTT (Dithiothreitol), 10 μM GDP, 0.1% fatty acid free BSA, and 10 μg/ml Saponin to 0.4 nM. 40 μl of the [^35S] GTP solution was added to the compound plate with a final concentration of 0.2 nM. The reaction was kept at room temperature for 45 min. At the end of incubation, all the mixtures in the compound plate were transferred to Millipore 384-well FB filter plates via the VELOCITY11® Vprep liquid handler. The filter plate was washed with water 4 times by using the manifold Embla plate washer and dried at 60° C. for 45 min. MicroScint 20 scintillation fluid (30 μl) was added to each well for counting on the Packard TOPCOUNT®. […]

[2] = target: S1P3 (membranes prepared from EDG3-Gal5-bla HEK293T cells) (Homo sapiens (Human), UniProt Q99500); assay: Receptor [35S] GTPγS binding assay (S1P3 GTPγS); assay type: biochemical; details: phosphate examples; read-out: S1P3 GTPγS
Experimental: as §1
Compounds were loaded in a 384 Falcon v-bottom plate (0.5 μl/well in a 11 point, 3-fold dilution). Membranes prepared from S1P1/CHO cells or EDG3-Gal5-bla HEK293T cells (EDG3 equivalent S1P3) were added to the compound plate (40 μl/well, final protein 3 μg/well) with MULTIDROP®. [^35S] GTP (1250 Ci/mmol, Perkin Elmer) was diluted in assay buffer: 20 mM HEPES, pH7.5, 10 mM MgCl2, 150 mM NaCl, 1 mM EGTA (ethylene glycol tetraacetic acid), 1 mM DTT (Dithiothreitol), 10 μM GDP, 0.1% fatty acid free BSA, and 10 μg/ml Saponin to 0.4 nM. 40 μl of the [^35S] GTP solution was added to the compound plate with a final concentration of 0.2 nM. The reaction was kept at room temperature for 45 min. At the end of incubation, all the mixtures in the compound plate were transferred to Millipore 384-well FB filter plates via the VELOCITY11® Vprep liquid handler. The filter plate was washed with water 4 times by using the manifold Embla plate washer and dried at 60° C. for 45 min. MicroScint 20 scintillation fluid (30 μl) was added to each well for counting on the Packard TOPCOUNT®.
A smaller value for GTPγS S1P1 EC50 value indicated greater activity for the compound in the GTPγS S1P1 binding assay. A larger value for the GTPγS S1P3 EC50 value indicated less activity in the GTPγS S1P3 binding assay. […] Thus the compounds of the present invention may be used in treating, preventing, or curing various S1P1 receptor-related conditions while reducing or minimizing the side effects due to S1P3 activity. The selectivity of the compounds of the present invention indicate their potential use in treating, preventing, or curing autoimmune and inflammatory diseases such as multiple sclerosis, rheumatoid arthritis, inflammatory bowel disease, lupus, psoriasis, or vascular diseases, while reducing or minimizing possible side effects due to S1P3 activity. Other potential uses of the compounds of the present invention include minimizing or reducing rejection of transplanted organs, while reducing or minimizing side effects due to S1P3 activity.

hS1P1/CHO cells = hS1P1/CHO cells (Homo sapiens (Human), UniProt P21453); assay: hS1P1 ERK phosphorylation (S1P1 pERK); assay type: cell-based; details: phosphate examples
Experimental: hS1P1 ERK Phosphorylation (S1P1 pERK)
hS1P1/CHO cells were plated into BD Amine 384-well plates the day before the assay. On the day of the assay, growth medium was removed and replaced with serum-free medium (Ham's F-12 Invitrogen) and incubated for 2 hours. Test compounds pre-diluted in HBSS (Gibco)/20 mM HEPES (Gibco) were transferred to the cell plates and incubated for 7 minutes at 37° C. Cells were lysed in lysis buffer (Perkin Elmer) and phospho-ERK was measured using the SureFire pERK kit (Perkin Elmer) as described by the manufacturer. Data was plotted as percentage activation of the test compound relative to the efficacy of 10 μM S1P.

human S1P1 = human S1P1 (Homo sapiens (Human), UniProt P21453); assay: S1P1 binding assay (33P-S1P radioligand competition, CHO cell membranes); details: phosphate examples; read-out: S1P1 Binding
Experimental: Membranes were prepared from CHO cells expressing human S1P1. Cells pellets (1×10^9 cells/pellet) were suspended in buffer containing 20 mM HEPES (4-(2-hydroxyethyl)-1-piperazineethanesulfonic acid), pH 7.5, 50 mM NaCl, 2 mM EDTA (Ethylenediaminetetraacetic acid) and Protease Inhibitor cocktail (Roche), and disrupted on ice using the Polytron homogenizer. The homogenate was centrifuged at 20,000 rpm (48,000 g) and the supernatant was discarded. The membrane pellets were resuspended in buffer containing 50 mM HEPES, pH 7.5, 100 mM NaCl, 1 mM MgCl2, 2 mM EDTA and stored in aliquots at −80° C. after protein concentration determination.

Sequence of hS1P1/CHO cells (P21453 whole entry): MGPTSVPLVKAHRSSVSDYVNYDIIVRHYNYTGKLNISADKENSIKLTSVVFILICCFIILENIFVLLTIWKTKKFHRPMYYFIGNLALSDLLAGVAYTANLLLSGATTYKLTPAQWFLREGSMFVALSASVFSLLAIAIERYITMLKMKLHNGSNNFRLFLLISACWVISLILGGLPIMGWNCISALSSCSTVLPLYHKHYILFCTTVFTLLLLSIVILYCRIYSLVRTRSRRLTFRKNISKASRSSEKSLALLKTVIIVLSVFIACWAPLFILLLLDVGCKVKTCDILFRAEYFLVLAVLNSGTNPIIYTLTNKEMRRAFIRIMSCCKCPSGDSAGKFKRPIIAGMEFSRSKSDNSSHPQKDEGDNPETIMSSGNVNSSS
Sequence of S1P1 (membranes prepared from S1P1/CHO cells) (P21453 whole entry): as above
Sequence of human S1P1 (P21453 whole entry): as above
Sequence of S1P3 (membranes prepared from EDG3-Gal5-bla HEK293T cells) (Q99500 whole entry): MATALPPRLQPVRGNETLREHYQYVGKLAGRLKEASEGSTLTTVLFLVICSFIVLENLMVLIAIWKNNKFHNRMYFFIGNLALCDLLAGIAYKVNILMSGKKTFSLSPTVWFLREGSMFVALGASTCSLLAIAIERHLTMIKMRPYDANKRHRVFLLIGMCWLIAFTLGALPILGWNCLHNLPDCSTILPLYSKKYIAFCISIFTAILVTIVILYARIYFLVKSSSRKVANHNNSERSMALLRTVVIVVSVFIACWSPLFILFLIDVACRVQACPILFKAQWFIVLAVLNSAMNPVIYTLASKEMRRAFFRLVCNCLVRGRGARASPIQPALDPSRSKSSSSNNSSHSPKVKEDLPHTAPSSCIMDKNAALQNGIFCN

| Compound | EC50 [1] | EC50 [2] | EC50 (hS1P1/CHO cells) | IC50 (human S1P1) |
| --- | --- | --- | --- | --- |
| NC1(COP(=O)(O)O)CC[C@H](c2ccc3c(c2)CC[C@@H](c2ccccc2)C3)C1 (single isomer, unassigned) [compound 570] | 10 to 100 nM | > 625 nM | < 10 nM | 10 to 100 nM |
| C=CCOCCO[C@@H]1CCc2cc(C3CCC(N)(COP(=O)(O)O)C3)ccc2C1 (single isomer, unassigned) [compound 579] | 100 to 1000 nM | > 625 nM | 10 to 100 nM | 100 to 1000 nM |
| N[C@@]1(COP(=O)(O)O)CC[C@@H](c2ccc3c(c2)CC[C@H](OCCOc2ccccc2)C3)C1 (single isomer, unassigned) [compound 582] | 10 to 100 nM | > 625 nM | < 10 nM | < 10 nM |
| N[C@@]1(COP(=O)(O)O)CC[C@@H](c2ccc3c(c2)CC[C@H](OCCOCc2cccs2)C3)C1 (single isomer, unassigned) [compound 589] | 10 to 100 nM | > 100 nM | < 10 nM | < 10 nM |
| COc1ccc(CC[C@@H]2CCc3cc(C4CCC(N)(COP(=O)(O)O)C4)ccc3C2)cc1 (single isomer, unassigned) [compound 593] | 10 to 100 nM | > 625 nM | 10 to 100 nM | < 10 nM |
| COCCCCCC[C@H]1CCc2cc(C3CCC(N)(COP(=O)(O)O)C3)ccc2C1 (single isomer, unassigned) [compound 597] | < 10 nM | > 625 nM | 10 to 100 nM | < 10 nM |
| COCCCCC[C@@H]1CCc2cc(C3CCC(N)(COP(=O)(O)O)C3)ccc2C1 (single isomer, unassigned) [compound 599] | < 10 nM | > 625 nM | < 10 nM | < 10 nM |
| C=CCOCCC[C@@H]1CCc2cc(C3CCC(N)(COP(=O)(O)O)C3)ccc2C1 (single isomer, unassigned) [compound 601] | 100 to 1000 nM | > 100 nM | < 10 nM | < 10 nM |
| N[C@@]1(COP(=O)(O)O)CC[C@@H](c2ccc3c(c2)CC[C@H](CCc2ccc4ccccc4n2)C3)C1 (single isomer, unassigned) [compound 604] | 100 to 1000 nM | > 625 nM | 10 to 100 nM | 100 to 1000 nM |
| N[C@@]1(COP(=O)(O)O)CC[C@@H](c2ccc3c(c2)CC[C@H](CCc2cccnc2)C3)C1 (single isomer, unassigned) [compound 606] | 10 to 100 nM | > 625 nM | < 10 nM | 10 to 100 nM |
| COc1cccc(F)c1CC[C@H]1CCc2cc([C@@H]3CC[C@@](N)(COP(=O)(O)O)C3)ccc2C1 (single isomer, unassigned) [compound 607] | 100 to 1000 nM | > 625 nM | 10 to 100 nM | 100 to 1000 nM |
| COc1cc(CC[C@H]2CCc3cc([C@@H]4CC[C@@](N)(COP(=O)(O)O)C4)ccc3C2)ccc1F (single isomer, unassigned) [compound 608] | < 10 nM | > 625 nM | < 10 nM | < 10 nM |
| COc1ccc(F)c(CC[C@H]2CCc3cc([C@@H]4CC[C@@](N)(COP(=O)(O)O)C4)ccc3C2)c1 (single isomer, unassigned) [compound 609] | 10 to 100 nM | > 625 nM | < 10 nM | 10 to 100 nM |
| COC(C)CCCCC1CCc2cc([C@H]3CC[C@](N)(COP(=O)(O)O)C3)ccc2C1 (single isomer, unassigned) [compound 611] | < 10 nM | > 625 nM | < 10 nM | < 10 nM |
